Data on 3 compounds can be found in patent US20080299140A1, “Immunogenic Composition and Peptide Sequences for Prevention and Treatment of an Hsv Condition” (priority 2002, published 2008).

In experiment [1] the test system is HLA-DR and HLA-DP molecules. The experiment is described as follows: MHC class II binding assays, panel of twelve HLA class II molecules (number of alleles bound). To be noted: number of the twelve class II MHC alleles bound; title: Threshold 600 nM/5 alleles.
The target in experiment [2] is T1, DR15=HLA-DR(α1*0101,α1*1501) (Homo sapiens, UniProt P01903+P01911).
T1 construct: endogenous in cells; host or cells: EBV homozygous human B cell line
The experiment is described as follows: HLA-DR specific binding assay, DR15.

Experiment [3] concerns the target T2, DRB3=HLA-DR(α1*0101,α3*0101) (Homo sapiens, UniProt P01903+P79483).
T2 construct: endogenous in cells; host or cells: STEILIN or 0206AD (both typed DRB3*0101)
The experiment is described as follows: HLA-DR specific binding assay, DRB3 (DR52).

In experiment [4] the target is T3, DR1=HLA-DR(α1*0101,α1*0101) (Homo sapiens, UniProt P01903+P01911, A100R/D57E/F55L/F60I/F76Y/I96L/L162R/M171V/P40L/Q125E/R42F/V115G/Y59C).
T3 construct: endogenous in cells; host or cells: EBV homozygous human B cell line
The experiment is described as follows: biochemical. The class given is binding. The note with it: […].

In experiment [5] the target is T4, DR4=HLA-DR(α1*0101,α1*0401) (Homo sapiens, UniProt P01903+P01911, A100K/A169T/F76Y/I96L/K127E/L162R/M171V/N62H/P40V/Q125Y/R42H/S133A/S149N/S66Y/V115G/V209L/W38E).
T4 construct: endogenous in cells; host or cells: BOLETH (EBV homozygous B cell line)
The experiment is described as follows: biochemical. In kind it is binding.

Experiment [6] deals with T5, DR13=HLA-DR(α1*0101,α1*1301) (Homo sapiens, UniProt P01903+P01911, A100E/A169T/K41T/L162R/M171V/P40S/Q125H/Q178H/Q39Y/Q99D/R42S/S66N/T262R/W38E/Y61H).
T5 construct: endogenous in cells; host or cells: 0206AD (EBV homozygous B cell line)
The experiment is described as follows: HLA-DR specific binding assay, DR13.

Experiment [7] addresses T6, DRB4=HLA-DR(α1*0101,α4*0101) (Homo sapiens, UniProt P01903+P13762, G164S).
T6 construct: endogenous in cells
Put plainly: HLA-DR specific binding assay, DRB4 (DR53).

The target of experiment [8] is T7, DR7=HLA-DR(α1*0101,α1*0701) (Homo sapiens, UniProt P01903+P01911, A100R/A102G/A103Q/D57E/D86V/E43K/F76Y/K127E/L162R/M171V/P40G/Q125H/Q99D/R33Q/R42Y/R54Q/S133A/S66F/T210M/V115G/Y107V/Y59L/Y89S).
T7 construct: endogenous in cells; host or cells: EBV homozygous human B cell line
The experiment is described as follows: HLA-DR specific binding assay, DR7.

Experiment [9] has as its target T8, DR11=HLA-DR(α1*0101,α1*1101) (Homo sapiens, UniProt P01903+P01911, A100R/A169T/A87E/I96F/K41T/L162R/M171V/P40S/Q125H/Q178H/Q39Y/Q99D/R42S/S66Y/T262R/V115G/W38E).
T8 construct: endogenous in cells; host or cells: SWEIG (EBV homozygous B cell line)
The experiment is described as follows: biochemical. The class given is binding.

Experiment [10] deals with T9, DP402 DP (α1*0101, α1*0402) (Homo sapiens, UniProt P04440+P20036, A65V/A84D/A85E/L207M).
T9 sequence (P20036 29-260): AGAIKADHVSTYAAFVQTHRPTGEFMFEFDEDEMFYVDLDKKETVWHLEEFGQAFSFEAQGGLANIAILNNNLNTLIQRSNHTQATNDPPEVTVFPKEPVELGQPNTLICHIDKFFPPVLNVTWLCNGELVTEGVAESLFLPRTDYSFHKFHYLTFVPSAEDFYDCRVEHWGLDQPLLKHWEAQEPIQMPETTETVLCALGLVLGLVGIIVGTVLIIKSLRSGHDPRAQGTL
T9 sequence (P04440 30-258 A65V/A84D/A85E): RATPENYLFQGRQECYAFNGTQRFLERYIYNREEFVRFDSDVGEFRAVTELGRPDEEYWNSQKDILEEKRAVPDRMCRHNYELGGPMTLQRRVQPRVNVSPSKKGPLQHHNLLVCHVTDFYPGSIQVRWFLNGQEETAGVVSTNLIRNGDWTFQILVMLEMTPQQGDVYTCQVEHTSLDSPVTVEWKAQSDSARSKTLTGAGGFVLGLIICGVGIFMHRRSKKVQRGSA
The experiment is described as follows: biochemical. The class given is binding.

Experiment [11] has as its target T10, DP401=HLA-DP(α1*0101,α1*0401) (Homo sapiens, UniProt P04440+P20036).
T10 sequence (P20036 32-260 limits assumed): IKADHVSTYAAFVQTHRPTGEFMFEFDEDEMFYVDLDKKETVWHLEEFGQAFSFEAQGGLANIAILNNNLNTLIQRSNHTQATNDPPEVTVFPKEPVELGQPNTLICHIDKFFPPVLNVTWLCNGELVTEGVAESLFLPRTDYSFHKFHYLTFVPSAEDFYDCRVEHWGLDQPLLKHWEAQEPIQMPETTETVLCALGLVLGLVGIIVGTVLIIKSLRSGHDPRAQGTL
T10 sequence (P04440 30-258): T9 sequence (P04440 30-258 A65V/A84D/A85E) with V36A, D55A, E56A
Put plainly: biochemical. The class given is binding.

The target of experiment [12] is T11, DRB5=HLA-DR(α1*0101,α5*0101) (Homo sapiens, UniProt P01903+Q30154).
T11 construct: endogenous in cells; host or cells: EBV homozygous human B cell line
T11 sequence (Q30154 30-266, other chains not shown): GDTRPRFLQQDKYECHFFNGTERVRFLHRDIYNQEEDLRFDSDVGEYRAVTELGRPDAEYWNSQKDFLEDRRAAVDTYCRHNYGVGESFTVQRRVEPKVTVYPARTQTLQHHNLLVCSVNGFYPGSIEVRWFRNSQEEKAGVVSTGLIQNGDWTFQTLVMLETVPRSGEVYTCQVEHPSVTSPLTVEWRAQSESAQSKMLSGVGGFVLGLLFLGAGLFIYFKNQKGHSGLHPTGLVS
The experiment is described as follows: biochemical. In kind it is binding. To be noted: Table V; […]; read-out: IC50 DRB5.

Experiment [13] deals with T12, DR3=HLA-DR(α1*0101,α1*0301) (Homo sapiens, UniProt P01903+P01911, A100K/A102G/A103R/A169T/F55Y/I96L/K41T/L162R/M171V/P40S/Q125H/Q178H/Q39Y/R42S/S66N/T106N/T262R/W38E/Y61H).
T12 construct: endogenous in cells; host or cells: STEILIN (EBV homozygous B cell line)
The experiment is described as follows: HLA-DR specific binding assay, DR3.

[14] abbreviates: IC50, DRD3, Class II MHC allele DRD3 (so in the source).
[15] abbreviates: Class II MHC allele DR1, read-out: IC50, DR1.
Where [16] appears, read: Class II MHC allele DR4, read-out: IC50, DR4.
Where [17] appears, read: Table V, […], read-out: IC50 DR4.
[18] abbreviates: Class II MHC allele DR11, read-out: IC50, DR11.
Where [19] appears, read: Table V, […], read-out: IC50 DR11.
Setting [20] is: IC50, DR3, Class II MHC allele DR3.

Molecules are shown by their SMILES. Residue numbers refer to the chain shown, from its start. Where two headings read alike, the source gives them in different places.

T2 sequence (P79483 30-266, other chains not shown): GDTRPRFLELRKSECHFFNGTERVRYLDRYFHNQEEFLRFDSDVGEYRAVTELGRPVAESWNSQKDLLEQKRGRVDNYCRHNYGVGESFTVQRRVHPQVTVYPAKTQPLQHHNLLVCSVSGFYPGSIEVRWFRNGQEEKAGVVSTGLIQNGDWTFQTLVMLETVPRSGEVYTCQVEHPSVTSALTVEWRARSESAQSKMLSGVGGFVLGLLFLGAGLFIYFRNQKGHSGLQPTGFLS

A word on the IC50: it is the midpoint of a concentration-inhibition curve. As to `CSCC[C@H](NC(=O)[C@H](CCCCN)NC(=O)[C@H](CC(C)C)NC(=O)[C@H](CO)NC(=O)[C@H](C)NC(=O)[C@H](CC(=O)O)NC(=O)[C@@H](NC(=O)[C@H](CC(C)C)NC(=O)[C@H](C)NC(=O)[C@H](Cc1ccc(O)cc1)NC(=O)[C@@H](N)CCCCN)C(C)C)C(=O)N[C@@H](C)C(=O)N[C@@H](CC(=O)O)C(=O)N1CCC[C@H]1C(=O)N[C@@H](CC(N)=O)C(=O)N[C@@H](CCCNC(=N)N)C(=O)N[C@@H](Cc1ccccc1)C(=O)N[C@@H](CCCNC(=N)N)C(=O)NCC(=O)N[C@@H](CCCCN)C(=O)N[C@@H](CC(=O)O)C(=O)N[C@@H](CC(C)C)C(=O)N1CCC[C@H]1C(=O)O` [HSV 29], in [1], the Range is given as 3. In addition, the IC50 in [2] was determined as 24500 nM; in experiment [3] (setting [14]) it was 1400 nM; in experiment [3] (IC50 DRB3, Table V, […]) it was 1400 nM; in experiment [4] (Table V, read-out: IC50 DR1), 1230 nM; in experiment [4] (setting [15]) it was 1230 nM; in experiment [5] (setting [16]) it was 82 nM. For the same compound, the IC50 was 82 nM in experiment [5] (setting [17]); above 100000 nM in [6]; above 100000 nM in experiment [6] (read-out: IC50, DR13, Class II MHC allele DR13); 52500 nM in [7]; 894 nM in [8]; 5250 nM in experiment [9] (setting [18]). The IC50 amounted to 5250 nM in experiment [9] (setting [19]); 1630 nM in experiment [10] (Class II MHC allele DP402); 1630 nM in experiment [10] (Table V, […]); 17500 nM in [11] (Class II MHC allele DP401); 17500 nM in experiment [11] (Table V, […]); 8 nM in experiment [12]. Further, the IC50 was 120 nM in experiment [13] (setting [20]) and 120 nM in experiment [13] (IC50 DR3, Table V, […]).
As to `CC[C@H](C)[C@H](NC(=O)[C@H](CCSC)NC(=O)[C@H](CCC(=O)O)NC(=O)[C@H](CCCNC(=N)N)NC(=O)[C@H](C)NC(=O)[C@H](CCC(=O)O)NC(=O)[C@H](C)NC(=O)[C@H](CC(C)C)NC(=O)[C@@H](N)CCCCN)C(=O)N[C@@H](CCCNC(=N)N)C(=O)N[C@@H](Cc1ccc(O)cc1)C(=O)N[C@@H](CCSC)C(=O)N[C@@H](C)C(=O)N[C@@H](CC(C)C)C(=O)N[C@H](C(=O)N[C@@H](CO)C(=O)N[C@@H](C)C(=O)N[C@@H](CCSC)C(=O)N[C@@H](CCC(=O)O)C(=O)N[C@@H](CCCNC(=N)N)C(=O)N[C@H](C(=O)N[C@@H](CCC(=O)O)C(=O)N[C@@H](Cc1c[nH]cn1)C(=O)N[C@@H](CCCCN)C(=O)N[C@@H](C)C(=O)N[C@@H](CCCCN)C(=O)N[C@@H](CCCCN)C(=O)N[C@@H](CCCCN)C(=O)NCC(=O)N[C@H](C(=O)N[C@@H](CO)C(=O)N[C@@H](C)C(=O)O)[C@@H](C)O)[C@@H](C)O)C(C)C` [HSV 1], the Range in experiment [1] is 10. For the same compound, the IC50 is 3 nM in [2]; above 100000 nM in experiment [3] (setting [14]); above 100000 nM in experiment [3] (IC50 DRB3, Table V, […]); 6 nM in [4] (Table V, read-out: IC50 DR1); 6 nM in [4] (setting [15]); 37 nM in experiment [5] (setting [16]). The IC50 was 37 nM in [5] (setting [17]); 284 nM in [6]; 43 nM in [7]; 296 nM in [8]; 13 nM in experiment [9] (setting [18]); 13 nM in experiment [9] (setting [19]). Also, the IC50 came out at 240 nM in experiment [10] (Class II MHC allele DP402); 240 nM in [10] (Table V, […]); 1610 nM in [11] (Class II MHC allele DP401); 1610 nM in experiment [11] (Table V, […]); 6 nM in [12]; 995 nM in [13] (setting [20]). Also, the IC50 in experiment [13] (IC50 DR3, Table V, […]) came out at 995 nM.
In experiment [1], `CSCC[C@H](NC(=O)[C@@H](NC(=O)[C@H](Cc1ccc(O)cc1)NC(=O)[C@H](CCCNC(=N)N)NC(=O)[C@@H](N)Cc1ccccc1)C(C)C)C(=O)N[C@@H](CCCNC(=N)N)C(=O)N[C@@H](CC(C)C)C(=O)N[C@@H](CCC(N)=O)C(=O)N[C@@H](CO)C(=O)N[C@@H](CC(N)=O)C(=O)N1CCC[C@H]1C(=O)N[C@@H](CCSC)C(=O)N[C@@H](CCCCN)C(=O)N[C@@H](C)C(=O)N[C@@H](CC(C)C)C(=O)N[C@@H](Cc1ccc(O)cc1)C(=O)N1CCC[C@H]1C(=O)N[C@@H](CC(C)C)C(=O)N[C@H](C(=O)N[C@H](C(=O)N[C@@H](CCCCN)C(=O)N[C@@H](CCC(=O)O)C(=O)N[C@@H](CC(C)C)C(=O)N[C@@H](CCCCN)C(=O)N[C@@H](CC(N)=O)C(=O)N1CCC[C@H]1C(=O)N[C@H](C(=O)N[C@@H](CC(N)=O)C(=O)N1CCC[C@H]1C(=O)N[C@@H](CC(=O)O)C(=O)N[C@@H](C)C(=O)N[C@@H](CO)C(=O)NCC(=O)N[C@@H](CCC(=O)O)C(=O)NCC(=O)O)[C@@H](C)O)[C@@H](C)O)[C@@H](C)O` [HSV 8] returned a Range of 10. Besides, the IC50 in experiment [2] is 3 nM; in [3] (setting [14]), 55000 nM; in experiment [3] (IC50 DRB3, Table V, […]), 55000 nM; in experiment [4] (Table V, read-out: IC50 DR1), 2 nM; in [4] (setting [15]), 2 nM; in experiment [5] (setting [16]) it was 12 nM. In addition, the half-inhibitory concentration (IC50) is 12 nM in experiment [5] (setting [17]); 314 nM in [6]; 232 nM in [7]; 20 nM in [8]; 4 nM in experiment [9] (setting [18]); 4 nM in experiment [9] (setting [19]). Further, the IC50 in experiment [10] (Class II MHC allele DP402) turned out to be 32 nM; in experiment [10] (Table V, […]), 32 nM; in experiment [11] (Class II MHC allele DP401) it was 107 nM; in [11] (Table V, […]), 107 nM; in experiment [12], 2 nM; in [13] (setting [20]), 4780 nM. The IC50 in [13] (IC50 DR3, Table V, […]) was determined as 4780 nM.
